Assay results from patent US20240109864A1, “SUBSTITUTED PYRAZOLYL PIPERIDINE CARBOXYLIC ACIDS” (BAYER AKTIENGESELLSCHAFT, priority 2020, published 2024).
Structures can show the parent of a compound that is named as a salt.

How the values were obtained:
[1] = target: T1, recombinant guanylate cyclase reporter cell line (Rattus norvegicus, UniProt P20595); assay: Effect on a recombinant guanylate cyclase reporter cell line; format: cell-based; conditions: in some cases mean values from individual determinations; for MEC: MEC = minimum effective concentration; for EC50: half maximal effective concentration
T1 construct: expressed in transfected cells
T1 sequence (P20595 1-619): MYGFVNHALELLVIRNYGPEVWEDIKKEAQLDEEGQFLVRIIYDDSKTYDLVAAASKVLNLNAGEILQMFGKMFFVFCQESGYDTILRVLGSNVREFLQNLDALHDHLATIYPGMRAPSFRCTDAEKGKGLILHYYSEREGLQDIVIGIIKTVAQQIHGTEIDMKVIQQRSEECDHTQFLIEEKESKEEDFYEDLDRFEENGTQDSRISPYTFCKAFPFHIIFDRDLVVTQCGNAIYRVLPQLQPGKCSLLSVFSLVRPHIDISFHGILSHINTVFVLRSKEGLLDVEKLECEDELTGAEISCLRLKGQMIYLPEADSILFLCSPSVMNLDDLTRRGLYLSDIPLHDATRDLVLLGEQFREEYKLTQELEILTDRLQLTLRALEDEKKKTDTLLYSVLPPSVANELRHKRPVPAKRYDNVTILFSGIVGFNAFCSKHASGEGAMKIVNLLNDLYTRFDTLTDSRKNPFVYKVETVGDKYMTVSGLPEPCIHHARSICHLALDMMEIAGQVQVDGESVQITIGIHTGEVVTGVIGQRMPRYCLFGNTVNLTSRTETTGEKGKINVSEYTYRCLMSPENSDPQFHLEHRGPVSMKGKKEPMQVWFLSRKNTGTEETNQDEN
T1 sequence (P19686 1-690 partner): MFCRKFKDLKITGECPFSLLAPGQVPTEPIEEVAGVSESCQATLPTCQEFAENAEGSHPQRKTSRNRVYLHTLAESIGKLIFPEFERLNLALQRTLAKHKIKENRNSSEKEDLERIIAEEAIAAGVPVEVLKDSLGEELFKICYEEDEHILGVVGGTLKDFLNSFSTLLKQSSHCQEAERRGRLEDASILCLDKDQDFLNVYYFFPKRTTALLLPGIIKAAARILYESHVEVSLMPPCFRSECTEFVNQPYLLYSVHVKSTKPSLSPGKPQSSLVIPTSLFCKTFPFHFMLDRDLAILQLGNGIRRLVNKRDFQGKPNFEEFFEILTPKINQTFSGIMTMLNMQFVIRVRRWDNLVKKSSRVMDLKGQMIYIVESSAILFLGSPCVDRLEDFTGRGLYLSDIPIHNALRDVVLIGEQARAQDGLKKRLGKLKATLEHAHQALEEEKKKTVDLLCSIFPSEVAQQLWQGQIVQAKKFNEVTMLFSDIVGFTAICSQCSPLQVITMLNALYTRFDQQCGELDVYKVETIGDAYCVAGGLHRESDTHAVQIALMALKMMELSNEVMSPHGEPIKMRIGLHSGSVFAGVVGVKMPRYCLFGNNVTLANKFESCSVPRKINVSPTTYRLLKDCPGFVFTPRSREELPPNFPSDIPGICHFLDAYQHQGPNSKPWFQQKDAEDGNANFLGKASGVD
Description: The cellular activity of the compounds according to the invention was determined using a recombinant guanylate cyclase reporter cell line, as described in F. Wunder et al., Anal. Biochem. 339, 104-112 (2005).

[2] = Pharmacokinetic parameters following intravenous administration in rats; format: in vivo
Description: (§1) The pharmacokinetic parameters of the compounds according to the invention were determined in male Wistar rats and/or in female beagles and/or in cynomolgus monkeys and/or in male CD-1 mice. Intravenous administration in the case of mice and rats was carried out by means of a species-specific plasma/DMSO formulation, and in the case of dogs and monkeys by means of a water/PEG400/ethanol formulation. In all species, oral administration of the dissolved substance was performed via gavage, based on a water/PEG400/ethanol formulation.
An internal standard (which may also be a chemically unrelated substance) was added to the samples of the compounds of the invention, calibration samples and qualifiers, and there followed protein precipitation by means of acetonitrile in excess. […] The supernatant was analysed by LC-MS/MS using C18 reversed-phase columns and variable mobile phase mixtures. The substances were quantified via the peak heights or areas from extracted ion chromatograms of specific selected ion monitoring experiments.
The plasma concentration/time plots determined were used to calculate the pharmacokinetic parameters such as AUC, Cmax, t1/2 (terminal half-life), F (bioavailability), MRT (mean residence time) and CL (clearance), by means of a validated pharmacokinetic calculation program. […]

[3] = Pharmacokinetic parameters following oral administration in rats; format: in vivo
Description: as §1
An internal standard (which may also be a chemically unrelated substance) was added to the samples of the compounds of the invention, calibration samples and qualifiers, and there followed protein precipitation by means of acetonitrile in excess. Addition of a buffer solution matched to the LC conditions, and subsequent vortexing, was followed by centrifugation at 1000 g. The supernatant was analysed by LC-MS/MS using C18 reversed-phase columns and variable mobile phase mixtures. The substances were quantified via the peak heights or areas from extracted ion chromatograms of specific selected ion monitoring experiments.
The plasma concentration/time plots determined were used to calculate the pharmacokinetic parameters such as AUC, Cmax, t1/2 (terminal half-life), F (bioavailability), MRT (mean residence time) and CL (clearance), by means of a validated pharmacokinetic calculation program.
Since the substance quantification was performed in plasma, it was necessary to determine the blood/plasma distribution of the substance in order to be able to adjust the pharmacokinetic parameters correspondingly. For this purpose, a defined amount of substance was incubated in K3 EDTA whole blood of the species in question in a rocking roller mixer for 20 min. After centrifugation at 1000 g, the plasma concentration was measured (by means of LC-MS/MS; see above) and determined by calculating the ratio of the Cblood/Cplasma value.

SMILES	MEC [1] [nM]	EC50 [1] [µM]	other results
O=C(O)c1cnn(C2CCCN(c3cc(Cl)ccc3-c3ccc(N4CCN(CC5CC5)CC4)cc3)C2)c1C(F)(F)F (single isomer, unassigned) [Example 7, 1-[1-[5-Chloro-2-[4-[4-(cyclopropylmethyl)piperazin-1-yl]phenyl]phenyl]-3-piperidyl]-5-(trifluoromethyl)pyrazole-4-carboxylic acid hydrochloride]	2.0	–	AUCnorm [2]: 1.37 kg·h/L; bioavailability in comparison to prior art (WO 2012/058132) ([3]; after oral (p.o.) application): lower bioavailability; AUCnorm ([3]; oral administration in rats): 0.52 kg·h/L; F ([3]; oral administration in rats, F = bioavailability): 37.4%
O=C(O)c1cnn(C2CCCN(c3cc(Cl)ccc3-c3ccc(N4CCN(CC(F)(F)F)CC4)cc3)C2)c1C(F)(F)F (single isomer, unassigned) [Example 15, 1-[1-[5-Chloro-2-[4-[4-(2,2,2-trifluoroethyl)piperazin-1-yl]phenyl]phenyl]-3-piperidyl]-5-(trifluoromethyl)pyrazole-4-carboxylic acid]	0.6	–	–
O=C(O)c1cnn(C2CCCN(c3cc(Cl)ccc3-c3ccc(N4CCN(C(=O)C56CC(F)(C5)C6)CC4)cc3)C2)c1C(F)(F)F (single isomer, unassigned) [Example 51, 1-[1-[5-Chloro-2-[4-[4-(3-fluorobicyclo[1.1.1]pentane-1-carbonyl)piperazin-1-yl]phenyl]phenyl]-3-piperidyl]-5-(trifluoromethyl)pyrazole-4-carboxylic acid]	3.0	0.0094	–
CCCN1CCN(c2ccc(-c3ccc(Cl)cc3N3CCCC(n4ncc(C(=O)O)c4C(F)(F)F)C3)cc2)CC1 (single isomer, unassigned) [Example 4, 1-[1-[5-Chloro-2-[4-(4-propylpiperazin-1-yl)phenyl]phenyl]-3-piperidyl]-5-(trifluoromethyl)pyrazole-4-carboxylic acid hydrochloride]	3.0	0.016	–
CCN1CCN(c2ccc(-c3ccc(Cl)cc3N3CCCC(n4ncc(C(=O)O)c4C(F)(F)F)C3)cc2)CC1 (single isomer, unassigned) [Example 3, 1-{1-[4-Chloro-4′-(4-ethylpiperazin-1-yl)[1,1′-biphenyl]-2-yl]piperidin-3-yl}-5-(trifluoromethyl)-1H-pyrazole-4-carboxylic acid hydrochloride]	10.0	0.0665	–
CCC(=O)N1CCN(c2ccc(-c3ccc(Cl)cc3N3CCCC(n4ncc(C(=O)O)c4C(F)(F)F)C3)cc2)CC1 (single isomer, unassigned) [Example 37, 1-[1-[5-Chloro-2-[4-(4-propanoylpiperazin-1-yl)phenyl]phenyl]-3-piperidyl]-5-(trifluoromethyl)pyrazole-4-carboxylic acid]	3.0	0.0155	–
CN1CCN(c2ccc(-c3ccc(Cl)cc3N3CCCC(n4ncc(C(=O)O)c4C(F)(F)F)C3)cc2)CC1 (single isomer, unassigned) [Example 1, 1-[1-[5-Chloro-2-[4-(4-methylpiperazin-1-yl)phenyl]phenyl]-3-piperidyl]-5-(trifluoromethyl)pyrazole-4-carboxylic acid]	10.0	0.0475	–
O=C(O)c1cnn(C2CCCN(c3cc(Cl)ccc3-c3ccc(N4CCN(CC5(F)CCC5)CC4)cc3)C2)c1C(F)(F)F (single isomer, unassigned) [Example 23, 1-[1-[5-Chloro-2-[4-[4-[(1-fluorocyclobutyl)methyl]piperazin-1-yl]phenyl]phenyl]-3-piperidyl]-5-(trifluoromethyl)pyrazole-4-carboxylic acid hydrochloride]	3.0	0.0275	–
O=C(O)c1cnn(C2CCCN(c3cc(Cl)ccc3-c3ccc(N4CCN(CC5CC(F)(F)C5)CC4)cc3)C2)c1C(F)(F)F (single isomer, unassigned) [Example 20, 1-[1-[5-Chloro-2-[4-[4-[(3,3-difluorocyclobutyl)methyl]piperazin-1-yl]phenyl]phenyl]-3-piperidyl]-5-(trifluoromethyl)pyrazole-4-carboxylic acid hydrochloride]	–	0.0036	MEC ([1]; hydrochloride): 1.0 nM
CC(C)CC(=O)N1CCN(c2ccc(-c3ccc(Cl)cc3N3CCCC(n4ncc(C(=O)O)c4C(F)(F)F)C3)cc2)CC1 (single isomer, unassigned) [Example 52, 1-[1-[5-Chloro-2-[4-[4-(3-methylbutanoyl)piperazin-1-yl]phenyl]phenyl]-3-piperidyl]-5-(trifluoromethyl)pyrazole-4-carboxylic acid]	10.0	0.031	–
O=C(O)c1cnn(C2CCCN(c3cc(Cl)ccc3-c3ccc(N4CCN(CC5CC5C(F)(F)F)CC4)cc3)C2)c1C(F)(F)F (single isomer, unassigned) [Example 33, 1-[1-[5-Chloro-2-[4-[4-[[2-(trifluoromethyl)cyclopropyl]methyl]piperazin-1-yl]phenyl]phenyl]-3-piperidyl]-5-(trifluoromethyl)pyrazole-4-carboxylic acid hydrochloride]	–	0.0375	MEC ([1]; hydrochloride): 10.0 nM
O=C(O)c1cnn(C2CCCN(c3cc(Cl)ccc3-c3ccc(N4CCN(CC5CC5F)CC4)cc3)C2)c1C(F)(F)F (single isomer, unassigned) [Example 25, 1-[1-[5-Chloro-2-[4-[4-[[2-fluorocyclopropyl]methyl]piperazin-1-yl]phenyl]phenyl]-3-piperidyl]-5-(trifluoromethyl)pyrazole-4-carboxylic acid hydrochloride]	–	0.022	MEC ([1]; hydrochloride): 10.0 nM
